According to patent US9193720B2, “Pyridin-3-yl acetic acid derivatives as inhibitors of human immunodeficiency virus replication” (priority 2014, dated 2015):

Test system: NL-RLuc virus
Experiment: Inhibition of HIV Replication (NL-RLuc luciferase reporter virus in MT-2 cells)
Format: cell-based
Details: Human immunodeficiency virus 1, MT2, 120 h
Summary of the method: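 Replication-competent virus with Renilla luciferase in place of part of nef, made in 293T cells and titered in MT-2 cells. Infected MT-2 cells grown 5 days with serially diluted compound in RPMI 1640/10% FBS, 10 mM HEPES pH 7.55. Luciferase read-out; EC50 from median effect equation, at least 2 experiments.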

SMILES | EC50
Cc1nc(C)c([C@H](OC(C)(C)C)C(=O)O)c(N2CCC(c3nc(C(C)C)no3)CC2)c1-c1ccc(OCCc2ccc(F)cc2)cc1 [Example 73, (S)-2-(tert-butoxy)-2-(5-(4-(4-fluorophenethoxy)phenyl)-4-(4-(3-isopropyl-1,2,4-oxadiazol-5-yl)piperidin-1-yl)-2,6-dimethylpyridin-3-yl)acetic acid] | 1030 nM
Cc1nc(C)c([C@H](OC(C)(C)C)C(=O)O)c(N2CCC(C(F)(F)F)CC2)c1-c1ccc(OCCc2ccc(F)cc2)cc1 [Example 74, (S)-2-(tert-butoxy)-2-(5-(4-(4-fluorophenethoxy)phenyl)-2,6-dimethyl-4-(4-(trifluoromethyl)piperidin-1-yl)pyridin-3-yl)acetic acid] | 379 nM
CCC1(C)CCN(c2c(-c3ccc(OCCc4ccc(F)cc4)cc3)c(C)nc(C)c2[C@H](OC(C)(C)C)C(=O)O)CC1 [Example 75, (S)-2-(tert-butoxy)-2-(4-(4-ethyl-4-methylpiperidin-1-yl)-5-(4-(4-fluorophenethoxy)phenyl)-2,6-dimethylpyridin-3-yl)acetic acid] | 4 nM
Cc1nc(C)c([C@H](OC(C)(C)C)C(=O)O)c(N2CCC(C)CC2)c1-c1ccc(OCCc2ccc(F)cc2)cc1 [Example 76, (S)-2-(tert-butoxy)-2-(5-(4-(4-fluorophenethoxy)phenyl)-2,6-dimethyl-4-(4-methylpiperidin-1-yl)pyridin-3-yl)acetic acid] | 17 nM
COC1(C)CCN(c2c(-c3ccc(OCCc4ccc(F)cc4)cc3)c(C)nc(C)c2[C@H](OC(C)(C)C)C(=O)O)CC1 [Example 77, (S)-2-(tert-butoxy)-2-(5-(4-(4-fluorophenethoxy)phenyl)-4-(4-methoxy-4-methylpiperidin-1-yl)-2,6-dimethylpyridin-3-yl)acetic acid] | 2 nM
Cc1nc(C)c([C@H](OC(C)(C)C)C(=O)O)c(N2CCC(C)(C#N)CC2)c1-c1ccc(OCCc2ccc(F)cc2)cc1 [Example 78, (S)-2-(tert-butoxy)-2-(4-(4-cyano-4-methylpiperidin-1-yl)-5-(4-(4-fluorophenethoxy)phenyl)-2,6-dimethylpyridin-3-yl)acetic acid] | 4 nM
CC(C)=C1CCN(c2c(-c3ccc(OCCc4ccc(F)cc4)cc3)c(C)nc(C)c2[C@H](OC(C)(C)C)C(=O)O)CC1 [Example 79, (S)-2-(tert-butoxy)-2-(5-(4-(4-fluorophenethoxy)phenyl)-2,6-dimethyl-4-(4-(propan-2-ylidene)piperidin-1-yl)pyridin-3-yl)acetic acid] | 291 nM
Cc1nc(C)c([C@H](OC(C)(C)C)C(=O)O)c(N2CCC(Cc3ccccc3)CC2)c1-c1ccc(OCCc2ccc(F)cc2)cc1 [Example 80, (S)-2-(4-(4-benzylpiperidin-1-yl)-5-(4-(4-fluorophenethoxy)phenyl)-2,6-dimethylpyridin-3-yl)-2-(tert-butoxy)acetic acid] | 1770 nM
Cc1nc(C)c([C@H](OC(C)(C)C)C(=O)O)c(N2CCC(C)(F)CC2)c1-c1ccc(OCCc2ccc(F)cc2)cc1 [Example 81, (S)-2-(tert-butoxy)-2-(4-(4-fluoro-4-methylpiperidin-1-yl)-5-(4-(4-fluorophenethoxy)phenyl)-2,6-dimethylpyridin-3-yl)acetic acid] | 4 nM
Cc1nc(C)c([C@H](OC(C)(C)C)C(=O)O)c(N2CC(C)CC(C)C2)c1-c1ccc(OCCc2ccc(F)cc2)cc1 (stereo partly shown) [Example 82] | 5430 nM
